This note sets out measurements from PubChem BioAssay (NCI).

Several values for one entry are separate records, joined by “and”; a condition that tells them apart may be missing. Equal values may be shown once.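 Exposure lasted 48 hours, with cells grown in 96-well plates and compounds tested at five concentrations. GI50 marks 50% less growth. Definition used: TGI = concentration required for complete inhibition of growth.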

Common to all, as to experiment: growth of human tumour cells (NCI), 48 h
Test [1] relates to HT29 colon.
Test [2] concerns COLO 205 colon.
The test system of test [3] is PC-3 prostate.
The subject of test [4] is TK-10 renal.
For test [5], the system named is SF-268 CNS.
The subject of test [6] is SR leukemia.
Test [7] concerns SW-620 colon.
The test system of test [8] is U251 CNS.
Test [9] deals with OVCAR-5 ovarian.
Test [10] relates to HCT-15 colon.

For `CC(C)CC(=O)O[C@H]1C(=O)O[C@@H]2C[C@H]3[C@H](C)C(=O)C(O[C@@H]4O[C@H](CO)[C@@H](O)[C@H](O)[C@H]4O)=C[C@]3(C)[C@H]3[C@@H](O)[C@H](O)[C@]4(C(=O)O)OC[C@]32[C@@H]14`, the GI50 in test [1] is 34 µM; in test [2], above 100 µM; in test [5] it was above 100 µM; in test [6], 33.6 µM; in test [7] it was above 100 µM; in test [8], 31.7 µM. In test [10], the GI50 was above 100 µM. Moreover, the TGI in test [1], in test [2], in test [3], in test [4], in test [5] and in test [6] was above 100 µM in each case. The TGI in test [7], in [8], in test [9] and in [10] was above 100 µM in each case.

In the case of `COc1cc(C(=O)N[C@@H]2CCCN(C)C2)ccc1Nc1ncc2c(n1)N(C1CCCC1)CC(C)(C)C(=O)N2C`, the GI50 in test [1] was 0.0363 µM; in test [2] it was 0.0412 µM; in test [3], 0.0646 µM; in test [4] it was 4.3 µM; in test [5] it was 0.588 µM; in test [6] it was 0.0369 µM. Further, the GI50 in test [7] is 0.0347 µM; in test [8], 0.0465 µM; in [9], 0.0608 µM; in [10], 0.38 µM. Further, the TGI in test [1] turned out to be 6.46 µM; in test [2], 1.18 µM; in [3] it was 19.9 µM; in [4], 20.9 µM; in test [5], 20.1 µM; in test [6], 2.49 µM. The TGI in test [7] is 16.7 µM; in [8] it was 5.48 µM; in [9], 17.5 µM; in test [10], 14 µM.

Consider `COc1ncc(-c2ccc3nc(N)n(-c4ccccc4C(F)(F)F)c(=O)c3c2)cc1S(=O)(=O)Nc1ccc(F)cc1F`, for which the GI50 in test [1] was 0.635 µM; in test [2] it was 0.511 µM; in test [3] it was 1.71 µM; in test [4], 6.73 µM; in test [5], 2.43 µM; in [6], 1.35 µM. Besides, the GI50 in [7] was 1.84 µM; in test [8], 0.953 µM; in [9], 1.03 µM; in test [10], 0.758 µM. The TGI in test [1] was 4.53 µM; in [2] it was 1.82 µM; in [3], 73.7 µM; in [4], above 100 µM; in test [5] it was above 100 µM; in test [6] it was 17.3 µM. For the same molecule, the TGI was determined as 20 µM in test [7], 15.3 µM in test [8], 9.81 µM in test [9] and 6.96 µM in [10].

`O=C(/C=C/c1ccccc1)c1ccccn1`: the TGI was 28.9 µM and 48.3 µM in test [1]; 32.9 µM and 45.7 µM in test [2]; 47.3 µM and 41.3 µM in test [3]; 31 µM and 36.9 µM in test [4]; 49.8 µM and 43.9 µM in test [5]; 7.7 µM and 54.6 µM in test [6]. In addition, the TGI is 58.9 µM and > 100 µM in [7]; 30.5 µM and 35.9 µM in test [8]; 29 µM and > 100 µM in test [9]; 24.9 µM and 50 µM in test [10]. Besides, the GI50 was 18.8 µM and 2.66 µM in [5]; 1.96 µM and 7.94 µM in test [6]; 11.5 µM and 24.2 µM in [9].

As to `CCn1nc(C#Cc2c(C)ccc3c(Nc4ccc(Cl)cc4)nccc23)c2c(N)ncnc21`, the GI50 is 2.32 µM in test [1]; 2.36 µM in test [2]; 3.03 µM in [3]; 6.39 µM in [4]; 5.36 µM in test [5]; 1.01 µM in [6]. The GI50 is 2.99 µM in [7], 4.43 µM in test [8], 9.19 µM in test [9] and 3.46 µM in test [10]. Further, the TGI in test [1], in test [2], in [3], in [4], in test [5] and in test [6] was above 100 µM throughout. The TGI in test [7], in test [8], in test [9] and in test [10] was above 100 µM throughout.

For the molecule `COC(=O)[C@@H](C)C[C@H](Cc1ccccc1)NC(=O)c1nc([C@@H](C[C@H](C(C)C)N(C)C(=O)[C@@H](NC(=O)[C@H]2CC(=O)CCN2C)C(C)C)OC(C)=O)sc1C(C)C`, the GI50 in [1] was 0.146 µM; in [2], 0.208 µM; in [3] it was 0.129 µM; in test [4] it was 1.43 µM; in test [5] it was 0.531 µM; in [6] it was 0.021 µM. Also, the GI50 is 0.141 µM in test [7], 0.352 µM in test [8], 0.617 µM in test [9] and 0.524 µM in [10]. Also, the TGI was above 6.97 µM in test [1]; 1.69 µM in [2]; above 16.7 µM in test [3]; above 16.7 µM in test [4]; above 16.7 µM in test [5]; above 16.7 µM in [6]. Also, the TGI in [7] is above 16.7 µM; in test [8] it was above 10.5 µM; in test [9], above 16.7 µM; in test [10], above 16.7 µM.

On to `Cc1ccc(CNc2ccc(Cl)cc2NCc2ccc(C)c(O)c2)cc1O`, for which the GI50 in test [1] is 9.73 µM; in [2] it was 8.01 µM; in test [3], 6.33 µM; in test [4] it was 8.4 µM; in test [5], 7 µM; in test [6], 5.75 µM. The GI50 in [7] is 8.22 µM; in test [8], 7.15 µM; in test [9], 8.32 µM; in [10] it was 5.66 µM. The TGI turned out to be 17.9 µM in [1]; 15.9 µM in [2]; 13.3 µM in test [3]; 15.5 µM in test [4]; 14.2 µM in test [5]; 18.2 µM in [6]. Also, the TGI in [7] stood at 16.8 µM; in test [8], 14.2 µM; in test [9] it was 16.2 µM; in test [10], 12.2 µM.
